Data on 28 compounds can be found in patent publication US9790221B2, “Heteroaryl compounds as IRAK inhibitors and uses thereof” (Merck Patent GmbH, priority 2014, dated 2017).

Experiment [1] addresses IRAK1 (His-TEV-IRAK1 (194-712)) (Homo sapiens (Human), UniProt P51617). Description: IRAK1 enzymatic assay. It is filed as biochemical. In outline:
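Compounds ([…] down to 1 nM) were incubated 3 h at 30° C with His-TEV-IRAK1 (194-712, 15 ng/well) and 1 μM [33P]-labelled ATP in 50 mM Hepes pH 7.0, 10 mM MgCl2. After EDTA stop and washing, the retained autophosphorylation signal was measured by scintillation in streptavidin-coated plates.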

A further experiment deals with IRAK4 (Homo sapiens (Human), UniProt Q9NWZ3). Put plainly: IRAK4 enzymatic assay. It is filed as biochemical. Put shortly: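 Radiometric streptavidin FlashPlate read: 3 h, 30° C incubation of His-TEV-IRAK4 (20 ng/well), STK1-biotin substrate (300 nM) and ATP (2 μM, [^33P]-labelled) in Hepes pH 7.0, MgCl2 10 mM, MnCl2 5 mM. Compounds from 20 µM down to 1 nM, 2% DMSO controls; reaction quenched with EDTA.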
Chain of IRAK4 (Q9NWZ3 whole entry): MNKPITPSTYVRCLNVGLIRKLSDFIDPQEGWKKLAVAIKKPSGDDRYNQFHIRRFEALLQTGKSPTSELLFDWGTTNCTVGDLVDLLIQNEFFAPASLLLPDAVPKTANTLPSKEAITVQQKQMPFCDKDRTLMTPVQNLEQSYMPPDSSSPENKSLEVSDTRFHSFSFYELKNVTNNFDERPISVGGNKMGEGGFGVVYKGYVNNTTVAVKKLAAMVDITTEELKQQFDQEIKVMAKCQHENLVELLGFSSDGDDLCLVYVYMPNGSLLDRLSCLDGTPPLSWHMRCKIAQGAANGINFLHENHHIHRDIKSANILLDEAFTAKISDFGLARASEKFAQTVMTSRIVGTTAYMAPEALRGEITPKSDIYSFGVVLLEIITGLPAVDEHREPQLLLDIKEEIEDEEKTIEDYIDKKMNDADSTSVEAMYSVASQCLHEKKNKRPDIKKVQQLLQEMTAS

Experiment [2] has as its system TLR7 induced IL-6 secretion in human mononuclear cells (PBMC's). Description: TLR7 induced IL-6 in human PBMC's. The conditions noted are these: Homo sapiens, PBMC, read-out: TLR7 induced IL-6 secretion in hPBMC's (IC50). It is filed as cell-based. On the procedure:
TLR7 Induced IL-6 in Human PBMC's
Human PBMC assay was used as one of the functional assay a to monitor the activity of IRAK1 and IRAK4 small molecule inhibitors on TLR7 induced IL-6 secretion in human mononuclear cells (PBMC's). Human PBMCs were prepared from buffy coats (whole blood enriched with leukocytes and platelets) obtained from healthy volunteers used either fresh or frozen are plated in assay media (RPMI+2% P/S/L-glu+10% HI-FBS) and pre-treated with compounds in DMSO/media (range of concentrations from 25 uM to 0.4 nM) or controls (0.25% DMSO) for 30 minutes at 37° C. in assay media. Following pre-treatment with IRAK1 and IRAK4 inhibitors, PBMC's were stimulated with TLR7 specific ligand (2 uM) overnight (16-18 hrs) at 37° C. After incubation supernatant was transferred to 384 well PE AlphaPlate-384 (6005350) and IL-6 is quantified using Perkin Elmer IL-6 Alpha LISA kit (AL223C). Plates were read on an Envision® plate reader with Alpha Technology®.

Where a name gives a salt, the structure may show the parent alone.

Chain of IRAK1 (His-TEV-IRAK1 (194-712)) (P51617 194-712): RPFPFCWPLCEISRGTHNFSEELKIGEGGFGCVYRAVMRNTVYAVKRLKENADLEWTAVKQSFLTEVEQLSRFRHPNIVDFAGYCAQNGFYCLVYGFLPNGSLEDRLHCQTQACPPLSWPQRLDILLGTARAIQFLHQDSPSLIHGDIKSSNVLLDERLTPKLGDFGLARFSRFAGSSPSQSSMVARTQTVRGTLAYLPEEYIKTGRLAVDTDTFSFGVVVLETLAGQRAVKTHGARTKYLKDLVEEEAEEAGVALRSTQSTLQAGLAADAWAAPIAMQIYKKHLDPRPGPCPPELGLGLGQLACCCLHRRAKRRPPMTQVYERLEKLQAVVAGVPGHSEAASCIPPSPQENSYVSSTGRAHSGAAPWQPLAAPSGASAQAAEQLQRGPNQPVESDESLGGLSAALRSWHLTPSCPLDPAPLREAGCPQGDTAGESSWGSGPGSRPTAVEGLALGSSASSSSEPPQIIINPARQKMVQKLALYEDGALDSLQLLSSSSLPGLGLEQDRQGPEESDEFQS

The IC50 is the concentration that gives 50% inhibition. As for `Cn1cc(-c2cccc(-c3ncc(-c4cnn(C)c4)c(NCC4CCNCC4)n3)c2)cn1` [Example 7, {5-(1-Methyl-1H-pyrazol-4-yl)-2-[3-(1-methyl-1H-pyrazol-4-yl)-phenyl]-pyrimidin-4-yl}-piperidin-4-ylmethyl-amine], the figures for the IC50 (in experiment [1]; on IRAK4; in experiment [2]) were 100 to 1000 nM, 100 to 1000 nM and 1000 to 5000 nM, respectively.
Consider `Cn1cc(-c2cccc(-c3ncc(-c4cnn(C)c4)c(OCC4(C)COC4)n3)c2)cn1` [Example 9, 4-(3-Methyl-oxetan-3-ylmethoxy)-5-(1-methyl-1H-pyrazol-4-yl)-2-[3-(1-methyl-1H-pyrazol-4-yl)-phenyl]-pyrimidine], for which the half-inhibitory concentration (IC50) in experiment [1] lay in the range of 1000 to 5000 nM; against IRAK4 it was 100 to 1000 nM; in experiment [2], 1000 to 5000 nM.
Regarding `Cn1cc(-c2cccc(-c3ncc(-c4ccn(C)n4)c(NCC4CCCNC4)n3)c2)cn1` (stereo not drawn) [Example 10, {5-(1-Methyl-1H-pyrazol-3-yl)-2-[3-(1-methyl-1H-pyrazol-4-yl)-phenyl]-pyrimidin-4-yl}-piperidin-3-ylmethyl-amine], the IC50 was 100 to 1000 nM in experiment [1], 100 to 1000 nM at IRAK4 and 1000 to 5000 nM in experiment [2].
As for `Cn1cc(-c2cccc(-c3ncc(-c4cnn(C)c4)c(OCC4COC4)n3)c2)cn1` [Example 11, 5-(1-Methyl-1H-pyrazol-4-yl)-2-[3-(1-methyl-1H-pyrazol-4-yl)-phenyl]-4-(oxetan-3-ylmethoxy)-pyrimidine], the values for the IC50 (in experiment [1]; against IRAK4; in experiment [2]) were > 5000 nM, 100 to 1000 nM and 1000 to 5000 nM, respectively.
The like results for `Cn1cc(-c2cccc(-c3ncc(-c4cnn(C)c4)c(NCC4CCOCC4)n3)c2)cn1` [Example 13, {5-(1-Methyl-1H-pyrazol-4-yl)-2-[3-(1-methyl-1H-pyrazol-4-yl)-phenyl]-pyrimidin-4-yl}-(tetrahydro-pyran-4-ylmethyl)-amine] were, in that order, 100 to 1000 nM, 100 to 1000 nM and 1000 to 5000 nM.
The like results for `Cc1nnc(-c2cnc(-c3cccc(-c4cnn(C)c4)c3)nc2NC(C)C)s1` [Example 15, Isopropyl-[2-[3-(1-methyl-1H-pyrazol-4-yl)-phenyl]-5-(5-methyl-[1,3,4]thiadiazol-2-yl)-pyrimidin-4-yl]-amine] were, in that order, 100 to 1000 nM, < 100 nM and 100 to 1000 nM.
As to `CC(C)Nc1nc(-c2cccc(-c3cnn(C)c3)c2)ncc1-c1nnc(C(=O)N2CC[C@@H](O)C2)s1` [Example 16, ((R)-3-Hydroxy-pyrrolidin-1-yl)-(5-{4-isopropylamino-2-[3-(1-methyl-1H-pyrazol-4-yl)-phenyl]-pyrimidin-5-yl}-[1,3,4]thiadiazol-2-yl)-methanone], the half-inhibitory concentration (IC50) in experiment [1] is 100 to 1000 nM; on IRAK4, < 100 nM; in experiment [2] it was 100 to 1000 nM.
Take `Cc1nnc(-c2cnc(-c3cccc(-c4cnn(C)c4)c3)nc2NC2CCCNC2)s1` (stereo not drawn) [Example 17, [2-[3-(1-Methyl-1H-pyrazol-4-yl)-phenyl]-5-(5-methyl-[1,3,4]thiadiazol-2-yl)-pyrimidin-4-yl]-piperidin-3-yl-amine Hydrochloride]: the IC50 in experiment [1] is > 5000 nM; at IRAK4, < 100 nM; in experiment [2] it was 100 to 1000 nM.
As for `COC(=O)c1nnc(-c2cnc(-c3cccc(-c4cnn(C)c4)c3)nc2NC2CCCNC2)s1` (stereo not drawn) [Example 18, 5-[2-[3-(1-Methyl-1H-pyrazol-4-yl)-phenyl]-4-(piperidin-3-ylamino)-pyrimidin-5-yl]-[1,3,4]thiadiazole-2-carboxylic Acid Methyl Ester Hydrochloride], the 50% inhibitory concentration (IC50) in experiment [1] was > 5000 nM; against IRAK4 it was < 100 nM; in experiment [2] it was 100 to 1000 nM.
The like results for `COC(=O)c1nnc(-c2cnc(-c3cccc(-c4cnn(C)c4)c3)nc2NCC2CNC2)s1` [Example 19, 5-{4-[(Azetidin-3-ylmethyl)-amino]-2-[3-(1-methyl-1H-pyrazol-4-yl)-phenyl]-pyrimidin-5-yl}-[1,3,4]thiadiazole-2-carboxylic Acid Methyl Ester Trifluoroacetate] were, in that order, > 5000 nM, 100 to 1000 nM and 1000 to 5000 nM.
The like results for `Cn1cc(-c2cccc(-c3ncc(-c4nnc(C(=O)N5CC[C@@H](O)C5)s4)c(NC4CCCNC4)n3)c2)cn1` (stereo partly drawn) [Example 20, ((R)-3-Hydroxy-pyrrolidin-1-yl)-{5-[2-[3-(1-methyl-1H-pyrazol-4-yl)-phenyl]-4-(piperidin-3-ylamino)-pyrimidin-5-yl]-[1,3,4]thiadiazol-2-yl}-methanone Hydrochloride] were, in that order, 100 to 1000 nM, 1000 to 5000 nM and 100 to 1000 nM.
For `CC(C)Nc1cc(-c2cccc(-c3cnn(C)c3)c2)ncc1-c1nnc(C(=O)N2CC[C@@H](O)C2)s1` [Example 21, ((R)-3-Hydroxy-pyrrolidin-1-yl)-(5-{4-isopropylamino-6-[3-(1-methyl-1H-pyrazol-4-yl)-phenyl]-pyridin-3-yl}-[1,3,4]thiadiazol-2-yl)-methanone], the IC50 is 1000 to 5000 nM in experiment [1], < 100 nM at IRAK4 and 1000 to 5000 nM in experiment [2].
For `CC(C)Nc1cc(-c2cccc(-c3cnn(C)c3)n2)ncc1-c1nnc(C(=O)N2CC[C@@H](O)C2)s1` [Example 22, ((R)-3-Hydroxy-pyrrolidin-1-yl)-{5-[4-isopropylamino-6′-(1-methyl-1H-pyrazol-4-yl)-[2,2′]bipyridinyl-5-yl]-[1,3,4]thiadiazol-2-yl}-methanone], the IC50 in experiment [1] was 100 to 1000 nM; against IRAK4 it was < 100 nM; in experiment [2], 100 to 1000 nM.
For the compound `Cn1cc(-c2cccc(-c3ncc(-c4cnn(C)c4)c(NC4CCCC4)n3)c2)cn1` [Example 32], the figures for the half-inhibitory concentration (IC50) (in experiment [1]; against IRAK4; in experiment [2]) were 100 to 1000 nM, < 100 nM and 1000 to 5000 nM, respectively.
The corresponding values for `Cn1cc(-c2cccc(-c3ncc(-c4cnn(C)c4)c(NCCCO)n3)c2)cn1` [Example 35] are 100 to 1000 nM, 100 to 1000 nM and 1000 to 5000 nM.
The like results for `Cn1cc(-c2cccc(-c3ncc(-c4cnn(C)c4)c(NCCN4CCOCC4)n3)c2)cn1` [Example 36] were, in that order, 1000 to 5000 nM, 100 to 1000 nM and 100 to 1000 nM.
For `Cn1cc(-c2cccc(-c3ncc(-c4cnn(C)c4)c(NCc4ccncc4)n3)c2)cn1` [Example 37], the values for the IC50 (in experiment [1]; on IRAK4; in experiment [2]) were 1000 to 5000 nM, 100 to 1000 nM and 1000 to 5000 nM, respectively.
Consider `Cn1cc(-c2cccc(-c3ncc(-c4cnn(C)c4)c(NCCN4CCOC4=O)n3)c2)cn1` [Example 38], for which the IC50 in experiment [1] is 1000 to 5000 nM; on IRAK4 it was 100 to 1000 nM; in experiment [2], > 5000 nM.
The corresponding values for `Cn1cc(-c2cccc(-c3ncc(-c4cnn(C)c4)c(NC4CCOC4)n3)c2)cn1` (stereo not drawn) [Example 41] are 100 to 1000 nM, 100 to 1000 nM and 1000 to 5000 nM.
The like results for `Cn1cc(-c2cccc(-c3ncc(-c4cnn(C)c4)c(NCC4CC(F)(F)C4)n3)c2)cn1` [Example 42] were, in that order, 100 to 1000 nM, 100 to 1000 nM and 100 to 1000 nM.
The like results for `Cn1cc(-c2cccc(-c3ncc(-c4cnn(C)c4)c(NCC4(C)CCC4)n3)c2)cn1` [Example 43] were, in that order, 100 to 1000 nM, 100 to 1000 nM and 1000 to 5000 nM.
With `Cn1cc(-c2cccc(-c3ncc(-c4cnn(C)c4)c(N[C@H]4CC[C@@H](N)CC4)n3)c2)cn1` [Example 44], the IC50 in experiment [1] was 100 to 1000 nM; at IRAK4, < 100 nM; in experiment [2], 100 to 1000 nM.
As for `CN(CC1(F)COC1)c1nc(-c2cccc(-c3cnn(C)c3)c2)ncc1-c1cnn(C)c1` [Example 45], the IC50 was 1000 to 5000 nM in experiment [1], 100 to 1000 nM against IRAK4 and 1000 to 5000 nM in experiment [2].
For the compound `Cn1cc(-c2cccc(-c3ncc(-c4cnn(C)c4)c(N[C@H]4C[C@@H](O)C4)n3)c2)cn1` [Example 46], the values for the half-maximal inhibitory concentration (IC50) (in experiment [1]; on IRAK4; in experiment [2]) were 100 to 1000 nM, 100 to 1000 nM and > 5000 nM, respectively.
On to `Cn1cc(-c2cccc(-c3ncc(-c4cnn(C)c4)c(N[C@H]4C[C@H](O)C4)n3)c2)cn1` [Example 47], for which the figures for the IC50 (in experiment [1]; against IRAK4; in experiment [2]) were 1000 to 5000 nM, 100 to 1000 nM and > 5000 nM, respectively.
The corresponding values for `Cn1cc(-c2cccc(-c3ncc(-c4cnn(C)c4)c(NC4CC(F)(F)C4)n3)c2)cn1` [Example 48] are 100 to 1000 nM, 100 to 1000 nM and > 5000 nM.
The like results for `Cn1cc(-c2cccc(-c3ncc(-c4cnn(C)c4)c(N[C@H]4C[C@@H](S(C)(=O)=O)C4)n3)c2)cn1` [Example 49] were, in that order, 100 to 1000 nM, 100 to 1000 nM and > 5000 nM.
Consider `Cn1cc(-c2cccc(-c3ncc(-c4cnn(C)c4)c(NC4CC(F)C4)n3)c2)cn1` (stereo not drawn) [Example 50], for which the IC50 in experiment [1] lay in the range of 100 to 1000 nM; against IRAK4, 100 to 1000 nM; in experiment [2], 1000 to 5000 nM.
